Laboratory results taken from patent US10568963B2, “Multifunctional nanoplatforms for fluorescence imaging and photodynamic therapy developed by post-loading photosensitizer and fluorophore to polyacrylamide nanoparticles” (HEALTH RESEARCH, INC., priority 2009, dated 2020).

Columns and labels:
[1] = test system: Colon 26 tumors; test: In-vivo photodynamic therapy (PDT), tumor regrowth monitored 60 days; conditions: BALB/c mice bearing Colon 26 tumors, PS dose 0.47 moles/kg, light 665 nm, 135 J/cm^2, 75 mW/cm^2, 24 hours post-injection
Protocol: Eight- to twelve-week-old BALB/cAnNCr mice (Jackson Laboratory, Bar Harbor, Me.) were inoculated subcutaneously (s.c.) with 1×10^6 Colon 26 cells. When tumors reached 40-70 mm^3, mice were injected i.v. (tail vein) with PS 1 (formulated in 1% Tween 80/D5W) or PAA nanoconstructs/formulations 6-10 suspended in water and further diluted in D5W. 24 hours post i.v. injection (dose of PS 1: […]), mice (BALB/c mice bearing Colon 26 tumors, 10 mice/group) were restrained in plexiglass holders and tumors were irradiated at 665 nm with a fluence and fluence rate of 135 J/cm^2 at 75 mW/cm^2, respectively, using a pumped argon-dye laser. The growth of tumors was measured two to three times per week and the mice were monitored for a total of 60 days post PDT treatment. When the tumor regrowth was >400 mm^3, the mice were euthanized according to the guidelines of the institute approved animal protocol.

[2] = in vivo; cited from earlier work
[3] = in vivo; cited from earlier work; remark: listed apart in the source
[4] = Water solubility; type: physicochemical

Q: Which results are given for `CCCCCCOC(C)c1c(C)c2cc3nc(c4c5[nH]c(cc6nc(cc1[nH]2)C(C)=C6CC)c(C)c5C(=O)C4)[C@@H](CCC(=O)O)[C@@H]3C` (stereo partly drawn) [HPPH, 3-(1′-hexyloxyethyl)pyropheophorbide-a]?
A: PDT response (no tumor regrowth) / tumor cure [1]: 40%; PDT response (no tumor regrowth) / tumor cure ([1]; listed as HPPH 1): 40%; plasma half lives [2]: ~25 h; skin phototoxicity [3]: low skin phototoxicity

Q: With `CC1(C)C(=CC=C2CCCC(C=CC3=[N+](CCCCS(=O)(=O)[O-])c4ccc5ccccc5c4C3(C)C)=C2Cl)N(CCCCS(=O)(=O)[O-])c2ccc3ccccc3c21.[Na+]` [cyanine dye 2, IR820] as the compound, how does the solubility in water [4] read?
A: The solubility in water was “water insoluble”.

Q: With iodobenzyl pheophorbide-a as the compound, how does the plasma half lives [2] read?
A: Its plasma half lives is ~25 h.
